From PubChem BioAssay AID248 (DTP/NCI, 2004)
“And” between values parts separate entries of the source, which are not always exact repeats. Equal values may be shown once. Inconclusive results and toxic doses are left out.

Test system: L1210 leukemia ip in BDF1 mice, survival T/C
Assay: NCI In Vivo Anticancer Drug Screen. Data for tumor model L1210 Leukemia (intraperitoneal) in B6D2F1 (BDF1) mice
Settings: endpoint: mean survival time, higher = longer survival
In short: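 Value reflects the ratio of survival in compound-treated mice to survival in vehicle-treated controls, with both groups carrying the same transplanted tumor.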

Q: Which results are given for `N=[N+]=CC(=O)CCC(NC(=O)C(CCC(=O)C=[N+]=N)NC(=O)CCC(N)C(=O)O)C(=O)O` (stereo unspecified)?
A: T/C (dose: 0.01 mg/kg/injection, schedule: Q01DX009 (ip), vehicle: water): 114 % of control; T/C (dose: 0.02 mg/kg/injection, schedule: Q01DX009 (ip), vehicle: other): 110 % of control; T/C (dose: 0.02 mg/kg/injection, schedule: Q01DX015 (ip), vehicle: water): 93 % of control; T/C (dose: 0.05 mg/kg/injection, schedule: Q01DX009 (ip), vehicle: other): 102 % of control and 115 % of control; T/C (dose: 0.05 mg/kg/injection, schedule: Q01DX015 (ip), vehicle: water): 102 % of control; T/C (dose: 0.05 mg/kg/injection, schedule: Q01DX017 (ip), vehicle: saline): 98 % of control and 106 % of control; T/C (dose: 0.05 mg/kg/injection, schedule: Q02DX009 (ip), vehicle: saline): 98 % of control; T/C (dose: 0.05 mg/kg/injection, schedule: Q03HX024 (ip), vehicle: water): 93 % of control; T/C (dose: 0.07 mg/kg/injection, schedule: Q01DX009 (ip), vehicle: water): 156 % of control; T/C (dose: 0.1 mg/kg/injection, schedule: Q01DX009 (ip), vehicle: other): 117 % of control; T/C (dose: 0.1 mg/kg/injection, schedule: Q01DX015 (ip), vehicle: water): 108 % of control; T/C (dose: 0.1 mg/kg/injection, schedule: Q01DX017 (ip), vehicle: saline): 123 % of control; T/C (dose: 0.1 mg/kg/injection, schedule: Q02DX009 (ip), vehicle: saline): 116 % of control; T/C (dose: 0.1 mg/kg/injection, schedule: Q04DX005 (ip), vehicle: saline): 102 % of control; T/C (dose: 0.2 mg/kg/injection, schedule: Q01DX009 (ip), vehicle: other): 107 % of control; T/C (dose: 0.2 mg/kg/injection, schedule: Q01DX017 (ip), vehicle: saline): 158 % of control; T/C (dose: 0.2 mg/kg/injection, schedule: Q02DX009 (ip), vehicle: saline): 123 % of control; T/C (dose: 0.2 mg/kg/injection, schedule: Q04DX005 (ip), vehicle: saline): 104 % of control; T/C (dose: 0.2 mg/kg/injection, schedule: Q08DX003 (ip), vehicle: saline): 112 % of control; T/C (dose: 0.4 mg/kg/injection, schedule: Q01DX015 (ip), vehicle: other): 117 % of control; T/C (dose: 0.4 mg/kg/injection, schedule: Q01DX015 (ip), vehicle: water): 153 % of control; T/C (dose: 0.4 mg/kg/injection, schedule: Q01DX017 (ip), vehicle: saline): 110 % of control and 123 % of control; T/C (dose: 0.4 mg/kg/injection, schedule: Q04DX005 (ip), vehicle: saline): 121 % of control; T/C (dose: 0.4 mg/kg/injection, schedule: Q08DX003 (ip), vehicle: saline): 107 % of control; T/C (dose: 0.6 mg/kg/injection, schedule: Q01DX015 (ip), vehicle: water): 183 % of control; T/C (dose: 0.8 mg/kg/injection, schedule: Q04DX005 (ip), vehicle: saline): 118 % of control; T/C (dose: 0.8 mg/kg/injection, schedule: Q08DX003 (ip), vehicle: saline): 109 % of control; T/C (dose: 1.0 mg/kg/injection, schedule: Q01DX009 (oral), vehicle: water): 96 % of control; T/C (dose: 1.0 mg/kg/injection, schedule: Q02DX005 (ip), vehicle: other): 160 % of control; T/C (dose: 1.0 mg/kg/injection, schedule: Q02DX005 (oral), vehicle: other): 163 % of control; T/C (dose: 1.25 mg/kg/injection, schedule: Q02DX008 (ip), vehicle: other): 189 % of control; T/C (dose: 1.25 mg/kg/injection, schedule: Q02DX008 (ip), vehicle: water): 166 % of control; T/C (dose: 1.25 mg/kg/injection, schedule: Q02DX008 (oral), vehicle: water): 156 % of control; T/C (dose: 1.6 mg/kg/injection, schedule: Q08DX003 (ip), vehicle: saline): 110 % of control; T/C (dose: 2.0 mg/kg/injection, schedule: Q02DX005 (oral), vehicle: other): 186 % of control; T/C (dose: 2.5 mg/kg/injection, schedule: Q02DX008 (oral), vehicle: water): 154 % of control; T/C (dose: 4.0 mg/kg/injection, schedule: Q02DX005 (ip), vehicle: other): 176 % of control; T/C (dose: 4.0 mg/kg/injection, schedule: Q02DX005 (oral), vehicle: other): 195 % of control; T/C (dose: 5.0 mg/kg/injection, schedule: Q02DX008 (ip), vehicle: other): 206 % of control; T/C (dose: 5.0 mg/kg/injection, schedule: Q04DX003 (ip), vehicle: other): 155 % of control; T/C (dose: 5.0 mg/kg/injection, schedule: Q04DX003 (ip), vehicle: saline): 170 % of control; T/C (dose: 6.0 mg/kg/injection, schedule: Q02DX005 (ip), vehicle: other): 197 % of control; T/C (dose: 6.0 mg/kg/injection, schedule: Q02DX005 (oral), vehicle: other): 204 % of control; T/C (dose: 6.2 mg/kg/injection, schedule: Q03HX024 (ip), vehicle: water): 193 % of control; T/C (dose: 8.0 mg/kg/injection, schedule: Q02DX005 (ip), vehicle: other): 183 % of control; T/C (dose: 8.0 mg/kg/injection, schedule: Q02DX005 (oral), vehicle: other): 200 % of control; T/C (dose: 10.0 mg/kg/injection, schedule: Q02DX008 (ip), vehicle: other): 117 % of control; T/C (dose: 10.0 mg/kg/injection, schedule: Q02DX008 (oral), vehicle: other): 166 % of control; T/C (dose: 10.0 mg/kg/injection, schedule: Q04DX003 (ip), vehicle: other): 155 % of control and 173 % of control; T/C (dose: 10.0 mg/kg/injection, schedule: Q04DX003 (ip), vehicle: saline): 192 % of control; T/C (dose: 10.0 mg/kg/injection, schedule: Q04DX003 (ip), vehicle: water): 167 % of control; T/C (dose: 12.5 mg/kg/injection, schedule: Q01DX001 (ip), vehicle: clinical formulation): 112 % of control; T/C (dose: 12.5 mg/kg/injection, schedule: Q01DX001 (ip), vehicle: saline): 119 % of control and 122 % of control; T/C (dose: 12.5 mg/kg/injection, schedule: Q03HX024 (ip), vehicle: water): 97 % of control; T/C (dose: 15.0 mg/kg/injection, schedule: Q02DX008 (oral), vehicle: other): 104 % of control; T/C (dose: 15.0 mg/kg/injection, schedule: Q## X003 (ip), vehicle: water): 185 % of control; T/C (dose: 20.0 mg/kg/injection, schedule: Q02DX008 (oral), vehicle: other): 116 % of control; T/C (dose: 20.0 mg/kg/injection, schedule: Q04DX003 (ip), vehicle: other): 166 % of control; T/C (dose: 20.0 mg/kg/injection, schedule: Q04DX003 (ip), vehicle: saline): 188 % of control; T/C (dose: 20.0 mg/kg/injection, schedule: Q04DX003 (ip), vehicle: water): 167 % of control and 171 % of control; T/C (dose: 20.0 mg/kg/injection, schedule: Q## X006 (ip), vehicle: water): 156 % of control; T/C (dose: 25.0 mg/kg/injection, schedule: Q01DX001 (ip), vehicle: clinical formulation): 123 % of control; T/C (dose: 25.0 mg/kg/injection, schedule: Q07DX002 (ip), vehicle: water): 156 % of control and 167 % of control; T/C (dose: 30.0 mg/kg/injection, schedule: Q04DX003 (ip), vehicle: other): 202 % of control; T/C (dose: 30.0 mg/kg/injection, schedule: Q## X003 (ip), vehicle: water): 209 % of control; T/C (dose: 40.0 mg/kg/injection, schedule: Q04DX003 (ip), vehicle: saline): 170 % of control; T/C (dose: 40.0 mg/kg/injection, schedule: Q04DX003 (ip), vehicle: water): 200 % of control and 206 % of control; T/C (dose: 40.0 mg/kg/injection, schedule: Q## X003 (ip), vehicle: water): 194 % of control; T/C (dose: 40.0 mg/kg/injection, schedule: Q## X006 (ip), vehicle: water): 188 % of control; T/C (dose: 50.0 mg/kg/injection, schedule: Q01DX001 (ip), vehicle: saline): 150 % of control; T/C (dose: 50.0 mg/kg/injection, schedule: Q01DX001 (ip), vehicle: water): 111 % of control; T/C (dose: 50.0 mg/kg/injection, schedule: Q07DX002 (ip), vehicle: other): 158 % of control; T/C (dose: 50.0 mg/kg/injection, schedule: Q## X003 (ip), vehicle: water): 178 % of control; T/C (dose: 60.0 mg/kg/injection, schedule: Q04DX003 (ip), vehicle: water): 195 % of control; T/C (dose: 60.0 mg/kg/injection, schedule: Q## X003 (ip), vehicle: water): 185 % of control; T/C (dose: 60.0 mg/kg/injection, schedule: Q## X006 (ip), vehicle: water): 115 % of control; T/C (dose: 75.0 mg/kg/injection, schedule: Q07DX002 (ip), vehicle: water): 192 % of control; T/C (dose: 80.0 mg/kg/injection, schedule: Q04DX003 (ip), vehicle: saline): 100 % of control; T/C (dose: 80.0 mg/kg/injection, schedule: Q04DX003 (ip), vehicle: water): 159 % of control; T/C (dose: 80.0 mg/kg/injection, schedule: Q## X006 (ip), vehicle: water): 115 % of control; T/C (dose: 100.0 mg/kg/injection, schedule: Q01DX001 (ip), vehicle: clinical formulation): 153 % of control; T/C (dose: 100.0 mg/kg/injection, schedule: Q07DX002 (ip), vehicle: other): 171 % of control; T/C (dose: 100.0 mg/kg/injection, schedule: Q07DX002 (ip), vehicle: water): 194 % of control; T/C (dose: 150.0 mg/kg/injection, schedule: Q07DX002 (ip), vehicle: water): 194 % of control; T/C (dose: 200.0 mg/kg/injection, schedule: Q01DX001 (ip), vehicle: other): 158 % of control; T/C (dose: 200.0 mg/kg/injection, schedule: Q01DX001 (ip), vehicle: saline): 96 % of control; T/C (dose: 200.0 mg/kg/injection, schedule: Q01DX001 (ip), vehicle: water): 109 % of control; T/C (dose: 200.0 mg/kg/injection, schedule: Q01DX001 (oral), vehicle: other): 155 % of control; T/C (dose: 250.0 mg/kg/injection, schedule: Q01DX001 (ip), vehicle: water): 117 % of control; T/C (dose: 300.0 mg/kg/injection, schedule: Q01DX001 (ip), vehicle: other): 101 % of control; T/C (dose: 300.0 mg/kg/injection, schedule: Q01DX001 (ip), vehicle: water): 96 % of control and 106 % of control
